From patent publication US20240124408A1 (Sanofi, priority 2020, published 2024)
Where a name gives a salt, the structure may show the parent alone.

Legend:
Format in all cases: cell-based
pig TRPM8 [1] = target: T1, pig TRPM8 (Sus scrofa, UniProt F1SM15); experiment: In vitro pig TRPM8 automated patch-clamp assay (SyncroPatch 384PE, CHO cells); conditions: CHO cells expressing pig TRPM8, 28° C.
T1 construct: expressed in transfected cells; host or cells: CHO (pcDNA5/FRT/TO vector; hygromycin B and blasticidin selection)
T1 sequence (F1SM15 1-1104): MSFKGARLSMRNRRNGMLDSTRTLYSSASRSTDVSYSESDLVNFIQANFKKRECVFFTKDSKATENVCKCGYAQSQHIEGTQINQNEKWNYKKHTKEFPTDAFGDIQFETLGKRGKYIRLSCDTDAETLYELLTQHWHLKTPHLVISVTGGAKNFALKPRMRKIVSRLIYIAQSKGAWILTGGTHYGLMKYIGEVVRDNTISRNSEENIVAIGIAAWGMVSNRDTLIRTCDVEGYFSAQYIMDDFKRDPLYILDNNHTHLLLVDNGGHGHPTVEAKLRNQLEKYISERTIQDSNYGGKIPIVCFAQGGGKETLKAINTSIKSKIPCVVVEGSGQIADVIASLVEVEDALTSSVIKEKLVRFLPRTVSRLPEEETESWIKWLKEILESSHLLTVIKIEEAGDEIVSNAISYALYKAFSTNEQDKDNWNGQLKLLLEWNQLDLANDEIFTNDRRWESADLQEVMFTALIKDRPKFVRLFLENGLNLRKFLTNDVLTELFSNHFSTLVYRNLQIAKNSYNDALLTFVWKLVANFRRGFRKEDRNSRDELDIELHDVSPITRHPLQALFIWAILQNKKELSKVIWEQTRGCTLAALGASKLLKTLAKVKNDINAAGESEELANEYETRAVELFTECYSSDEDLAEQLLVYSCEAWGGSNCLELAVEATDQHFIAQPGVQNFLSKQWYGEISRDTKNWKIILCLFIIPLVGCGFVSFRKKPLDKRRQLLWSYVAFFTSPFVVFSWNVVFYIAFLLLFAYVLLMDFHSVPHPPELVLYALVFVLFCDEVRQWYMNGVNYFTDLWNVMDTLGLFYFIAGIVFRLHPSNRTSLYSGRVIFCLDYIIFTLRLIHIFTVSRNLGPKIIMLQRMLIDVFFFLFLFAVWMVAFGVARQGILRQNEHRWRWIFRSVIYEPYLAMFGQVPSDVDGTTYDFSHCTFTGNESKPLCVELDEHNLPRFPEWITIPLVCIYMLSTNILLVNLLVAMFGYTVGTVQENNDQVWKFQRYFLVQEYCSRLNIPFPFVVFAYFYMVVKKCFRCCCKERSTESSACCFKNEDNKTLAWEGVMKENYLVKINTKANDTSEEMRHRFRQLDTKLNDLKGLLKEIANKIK
Procedure, shortened: (§1)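 Whole-cell automated patch clamp on engineered CHO lines at 28 °C, held at −60 mV, with −80 to +80 mV ramps every 5 s; one compound concentration per well. Peak current minus pre-addition baseline was normalised to no-compound control and Emax, and EC50 was fitted; 200 μM menthol wells served as control.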

pig TRPM8 [2] = target: T1, pig TRPM8; experiment: In vitro pig TRPM8 fluorescence calcium flux assay (recombinant CHO cells, Fluo4-AM, FDSS6000); conditions: recombinant CHO cells expressing pig TRPM8; menthol-related EC50, normalized to 100 μM menthol
Procedure, shortened: (§2)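 CHO cells stably expressing pig or human TRPM8, loaded with 2 μM Fluo4-AM in HBSS/20 mM HEPES/0.1% BSA/2.5 mM probenecid for 1 h at RT. Intracellular calcium read kinetically for 3 min after compound addition. EC50 from sixteen-point curves, normalized to 100 μM menthol maximal response.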

human TRPM8 [3] = target: T2, human TRPM8 (Homo sapiens, UniProt Q7Z2W7); experiment: In vitro human TRPM8 fluorescence calcium flux assay (recombinant CHO cells, Fluo4-AM, FDSS6000); conditions: recombinant CHO cells expressing human TRPM8; menthol-related EC50, normalized to 100 μM menthol
T2 construct: expressed in transfected cells; host or cells: CHO (p658 mammalian expression vector)
T2 sequence (Q7Z2W7 whole entry): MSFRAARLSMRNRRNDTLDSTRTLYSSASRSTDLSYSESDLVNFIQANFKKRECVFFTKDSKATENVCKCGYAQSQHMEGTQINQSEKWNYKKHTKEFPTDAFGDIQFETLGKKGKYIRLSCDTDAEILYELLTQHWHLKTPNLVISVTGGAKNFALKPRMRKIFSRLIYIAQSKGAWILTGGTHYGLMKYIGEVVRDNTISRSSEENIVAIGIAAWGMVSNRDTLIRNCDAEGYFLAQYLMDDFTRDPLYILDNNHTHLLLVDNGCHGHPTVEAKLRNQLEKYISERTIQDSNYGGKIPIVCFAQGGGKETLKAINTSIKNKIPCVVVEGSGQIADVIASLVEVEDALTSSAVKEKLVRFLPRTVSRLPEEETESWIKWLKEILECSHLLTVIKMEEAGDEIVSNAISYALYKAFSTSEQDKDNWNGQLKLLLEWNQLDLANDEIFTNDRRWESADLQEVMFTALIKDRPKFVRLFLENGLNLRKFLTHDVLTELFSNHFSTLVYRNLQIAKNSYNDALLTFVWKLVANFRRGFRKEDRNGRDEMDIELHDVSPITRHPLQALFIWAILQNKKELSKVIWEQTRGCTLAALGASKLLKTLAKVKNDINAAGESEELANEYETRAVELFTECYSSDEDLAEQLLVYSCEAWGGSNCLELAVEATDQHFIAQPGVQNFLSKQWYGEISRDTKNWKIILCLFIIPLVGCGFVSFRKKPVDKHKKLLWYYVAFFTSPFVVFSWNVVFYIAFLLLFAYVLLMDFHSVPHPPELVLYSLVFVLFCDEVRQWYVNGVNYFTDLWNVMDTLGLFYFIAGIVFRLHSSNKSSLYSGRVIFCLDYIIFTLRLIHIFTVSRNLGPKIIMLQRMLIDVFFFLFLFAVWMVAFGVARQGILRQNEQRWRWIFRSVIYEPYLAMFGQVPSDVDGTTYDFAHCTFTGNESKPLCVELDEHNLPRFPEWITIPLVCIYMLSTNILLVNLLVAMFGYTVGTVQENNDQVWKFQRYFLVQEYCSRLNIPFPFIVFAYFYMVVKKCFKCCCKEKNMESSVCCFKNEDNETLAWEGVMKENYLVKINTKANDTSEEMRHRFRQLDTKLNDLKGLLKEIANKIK
Procedure, shortened: as §2

human TRPM8 [4] = target: T2, human TRPM8; experiment: In vitro human TRPM8 automated patch-clamp assay (SyncroPatch 384PE, CHO cells); conditions: CHO cells expressing human TRPM8, 28° C.
Procedure, shortened: as §1

Question: How did the EC50 (pig TRPM8 [1]) turn out when CC(C)[C@@H]1CC[C@@H](C)C[C@@]1(O)C(=O)NC[C@H](F)c1ccccc1 [Example 179, (1S,2S,5R)—N-((2R)-2-fluoro-2-phenylethyl)-1-hydroxy-2-isopropyl-5-methylcyclohexane-1-carboxamide] was run?
Answer: 598 nM

Question: What about the EC50 (pig TRPM8 [2]) of the same compound?
Answer: 0.6 nM

Question: And the EC50 (human TRPM8 [3])?
Answer: 1.1 nM

Question: What about the EC50 (human TRPM8 [4]) of the same compound?
Answer: 590 nM

Question: Cc1cccc(CCNC(=O)[C@]2(O)C[C@H](C)CC[C@H]2C(C)C)c1 [Example 58, (1S,2S,5R)-1-hydroxy-2-isopropyl-5-methyl-N-(3-methylphenethyl)cyclohexane-1-carboxamide] was tested. Which EC50 (pig TRPM8 [1]) did it give?
Answer: 887 nM

Question: And the EC50 (pig TRPM8 [2])?
Answer: 2.2 nM

Question: And the EC50 (human TRPM8 [3])?
Answer: 5.2 nM

Question: And the EC50 (human TRPM8 [4])?
Answer: 1030 nM

Question: How did the EC50 (pig TRPM8 [1]) turn out when CC(C)[C@@H]1CC[C@@H](C)C[C@@]1(O)C(=O)NCCc1ccccn1 [Example 125, (1S,2S,5R)-1-hydroxy-2-isopropyl-5-methyl-N-[2-(2-pyridyl)ethyl]cyclohexanecarboxamide] was run?
Answer: 7740 nM

Question: What about the EC50 (pig TRPM8 [2]) of the same compound?
Answer: 15.2 nM

Question: What about the EC50 (human TRPM8 [3]) of the same compound?
Answer: 42.3 nM

Question: What about the EC50 (human TRPM8 [4]) of the same compound?
Answer: 5900 nM

Question: For [2H]C(O)(CNC(=O)[C@]1(O)C[C@H](C)CC[C@H]1C(C)C)c1ccccc1 (stereo partly drawn) [Example 72, (1S,2S,5R)-1-hydroxy-N-(2-hydroxy-2-phenylethyl-2-d)-2-isopropyl-5-methylcyclohexane-1-carboxamide], which EC50 (pig TRPM8 [1]) is on record?
Answer: 790 nM

Question: And the EC50 (pig TRPM8 [2])?
Answer: 2 nM

Question: And the EC50 (human TRPM8 [3])?
Answer: 3 nM

Question: What about the EC50 (human TRPM8 [4]) of the same compound?
Answer: 1390 nM

Question: CC(C)[C@@H]1CC[C@@H](C)C[C@@]1(O)C(=O)N[C@@H]1COc2ccccc2C1 [Example 94, (1S,2S,5R)—N-((3S)-chroman-3-yl)-1-hydroxy-2-isopropyl-5-methylcyclohexane-1-carboxamide] was tested. Which EC50 (pig TRPM8 [1]) did it give?
Answer: 1500 nM

Question: What about the EC50 (pig TRPM8 [2]) of the same compound?
Answer: 7.7 nM

Question: And the EC50 (human TRPM8 [3])?
Answer: 6.4 nM

Question: What about the EC50 (human TRPM8 [4]) of the same compound?
Answer: 1070 nM

Question: For COC(=O)COc1cccc(CCNC(=O)[C@]2(O)C[C@H](C)CC[C@H]2C(C)C)c1 [Example 64, methyl 2-(3-(2-((1S,2S,5R)-1-hydroxy-2-isopropyl-5-methylcyclohexane-1-carboxamido)ethyl)phenoxy)acetate], which EC50 (pig TRPM8 [1]) is on record?
Answer: 3870 nM

Question: And the EC50 (pig TRPM8 [2])?
Answer: 8.3 nM

Question: What about the EC50 (human TRPM8 [3]) of the same compound?
Answer: 16.6 nM

Question: And the EC50 (human TRPM8 [4])?
Answer: 5820 nM

Question: How did the EC50 (pig TRPM8 [1]) turn out when CC(C)[C@@H]1CC[C@@H](C)C[C@@]1(O)C(=O)NCC(F)c1ccccc1 (stereo partly drawn) [Example 5, (1S,2S,5R)—N-(2-fluoro-2-phenylethyl)-1-hydroxy-2-isopropyl-5-methylcyclohexane-1-carboxamide] was run?
Answer: 478 nM

Question: What about the EC50 (pig TRPM8 [2]) of the same compound?
Answer: 0.7 nM

Question: What about the EC50 (human TRPM8 [3]) of the same compound?
Answer: 1.3 nM

Question: What about the EC50 (human TRPM8 [4]) of the same compound?
Answer: 950 nM

Question: CC(C)[C@@H]1CC[C@@H](C)C[C@@]1(O)C(=O)NCC1(O)CCOc2ccccc21 (stereo partly drawn) [Example 96, (1S,2S,5R)-1-hydroxy-N-((4-hydroxychroman-4-yl)methyl)-2-isopropyl-5-methylcyclohexane-1-carboxamide] was tested. Which EC50 (pig TRPM8 [1]) did it give?
Answer: 1100 nM

Question: What about the EC50 (pig TRPM8 [2]) of the same compound?
Answer: 25.2 nM

Question: What about the EC50 (human TRPM8 [3]) of the same compound?
Answer: 10.3 nM

Question: And the EC50 (human TRPM8 [4])?
Answer: 630 nM

Question: Which results are given for CC(C)[C@@H]1CC[C@@H](C)C[C@@]1(O)C(=O)NCC(C(=O)OCC(C)(C)N)c1ccccc1 (stereo partly drawn) [Example 73, 2-amino-2-methylpropyl 3-((1S,2S,5R)-1-hydroxy-2-isopropyl-5-methylcyclohexane-1-carboxamido)-2-phenylpropanoate hydrochloride]?
Answer: EC50 (pig TRPM8 [1]): 1120 nM; EC50 (pig TRPM8 [2]): 8 nM; EC50 (human TRPM8 [3]): 4 nM; EC50 (human TRPM8 [4]): 690 nM

Question: For COC(=O)c1cccc(C(O)CNC(=O)[C@]2(O)C[C@H](C)CC[C@H]2C(C)C)c1 (stereo partly drawn) [Example 34, methyl 3-(1-hydroxy-2-((1S,2S,5R)-1-hydroxy-2-isopropyl-5-methylcyclohexane-1-carboxamido)ethyl)benzoate], which EC50 (pig TRPM8 [1]) is on record?
Answer: 3210 nM

Question: What about the EC50 (pig TRPM8 [2]) of the same compound?
Answer: 80 nM

Question: What about the EC50 (human TRPM8 [3]) of the same compound?
Answer: 97 nM

Question: What about the EC50 (human TRPM8 [4]) of the same compound?
Answer: 4590 nM

Question: Which EC50 (pig TRPM8 [1]) does the source give for CC(C)[C@@H]1CC[C@@H](C)C[C@@]1(O)C(=O)NCCOC(=O)c1ccccc1 [Example 111, 2-((1S,2S,5R)-1-hydroxy-2-isopropyl-5-methylcyclohexane-1-carboxamido)ethyl benzoate] here?
Answer: 5070 nM

Question: And the EC50 (pig TRPM8 [2])?
Answer: 25.1 nM

Question: What about the EC50 (human TRPM8 [3]) of the same compound?
Answer: 72.7 nM

Question: And the EC50 (human TRPM8 [4])?
Answer: 5100 nM

Question: What does the source list for CC(C)[C@@H]1CC[C@@H](C)C[C@@]1(O)C(=O)NCC(C(=O)OCCN)c1ccccc1 (stereo partly drawn) [Example 71, 2-aminoethyl 3-((1S,2S,5R)-1-hydroxy-2-isopropyl-5-methylcyclohexane-1-carboxamido)-2-phenylpropanoate hydrochloride]?
Answer: EC50 (pig TRPM8 [1]): 862 nM; EC50 (pig TRPM8 [2]): 2 nM; EC50 (human TRPM8 [3]): 1 nM; EC50 (human TRPM8 [4]): 183 nM

Question: How did the EC50 (pig TRPM8 [1]) turn out when CC(C)[C@@H]1CC[C@@H](C)C[C@@]1(O)C(=O)NCC(O)c1cccc(O)c1 (stereo partly drawn) [Example 32, (1S,2S,5R)-1-hydroxy-N-(2-hydroxy-2-(3-hydroxyphenyl)ethyl)-2-isopropyl-5-methylcyclohexane-1-carboxamide] was run?
Answer: 507 nM

Question: What about the EC50 (pig TRPM8 [2]) of the same compound?
Answer: 3 nM

Question: What about the EC50 (human TRPM8 [3]) of the same compound?
Answer: 3 nM

Question: And the EC50 (human TRPM8 [4])?
Answer: 1230 nM

Question: CC(=O)O[C@H](CNC(=O)[C@]1(O)C[C@H](C)CC[C@H]1C(C)C)c1ccccc1 [Example 3, (S)-2-((1S,2S,5R)-1-hydroxy-2-isopropyl-5-methylcyclohexane-1-carboxamido)-1-phenylethyl acetate] was tested. Which EC50 (pig TRPM8 [1]) did it give?
Answer: 9910 nM

Question: And the EC50 (pig TRPM8 [2])?
Answer: 35.5 nM

Question: What about the EC50 (human TRPM8 [3]) of the same compound?
Answer: 36.8 nM

Question: What about the EC50 (human TRPM8 [4]) of the same compound?
Answer: 1120 nM

Question: CC(C)[C@@H]1CC[C@@H](C)C[C@@]1(O)C(=O)NCC(CCO)c1ccccc1 (stereo partly drawn) [Example 66, (1S,2S,5R)-1-hydroxy-N-(4-hydroxy-2-phenylbutyl)-2-isopropyl-5-methylcyclohexane-1-carboxamide] was tested. Which EC50 (pig TRPM8 [1]) did it give?
Answer: 6060 nM

Question: And the EC50 (pig TRPM8 [2])?
Answer: 75 nM

Question: What about the EC50 (human TRPM8 [3]) of the same compound?
Answer: 51 nM

Question: What about the EC50 (human TRPM8 [4]) of the same compound?
Answer: 3700 nM

Question: With CC(C)[C@@H]1CC[C@@H](C)C[C@@]1(O)C(=O)NCC(=O)c1cccc(F)c1F [Example 142, (1S,2S,5R)-N-[2-(2,3-difluorophenyl)-2-oxo-ethyl]-1-hydroxy-2-isopropyl-5-methyl-cyclohexanecarboxamide] as the compound, how does the EC50 (pig TRPM8 [1]) read?
Answer: 3290 nM

Question: What about the EC50 (pig TRPM8 [2]) of the same compound?
Answer: 4 nM

Question: What about the EC50 (human TRPM8 [3]) of the same compound?
Answer: 12 nM

Question: And the EC50 (human TRPM8 [4])?
Answer: 1410 nM

Question: What does the source list for COC(=O)COc1ccccc1CCNC(=O)[C@]1(O)C[C@H](C)CC[C@H]1C(C)C [Example 61, methyl 2-(2-(2-((1S,2S,5R)-1-hydroxy-2-isopropyl-5-methylcyclohexane-1-carboxamido)ethyl)phenoxy)acetate]?
Answer: EC50 (pig TRPM8 [1]): 5050 nM; EC50 (pig TRPM8 [2]): 7.4 nM; EC50 (human TRPM8 [3]): 11.1 nM; EC50 (human TRPM8 [4]): 2910 nM

Question: For COc1ccccc1C(F)(F)CNC(=O)[C@]1(O)C[C@H](C)CC[C@H]1C(C)C [Example 186, (1S,2S,5R)—N-[2,2-difluoro-2-(2-methoxyphenyl)ethyl]-1-hydroxy-2-isopropyl-5-methyl-cyclohexanecarboxamide], which EC50 (pig TRPM8 [1]) is on record?
Answer: 2100 nM

Question: And the EC50 (pig TRPM8 [2])?
Answer: 26.1 nM

Question: What about the EC50 (human TRPM8 [3]) of the same compound?
Answer: 43.9 nM

Question: And the EC50 (human TRPM8 [4])?
Answer: 1000 nM

Question: Which EC50 (pig TRPM8 [1]) does the source give for COc1cc(C=O)ccc1OC(=O)CNC(=O)[C@]1(O)C[C@H](C)CC[C@H]1C(C)C [Example 68, 4-formyl-2-methoxyphenyl ((1S,2S,5R)-1-hydroxy-2-isopropyl-5-methylcyclohexane-1-carbonyl)glycinate] here?
Answer: 3640 nM

Question: What about the EC50 (pig TRPM8 [2]) of the same compound?
Answer: 32 nM

Question: And the EC50 (human TRPM8 [3])?
Answer: 44 nM

Question: And the EC50 (human TRPM8 [4])?
Answer: 2690 nM

Question: Which EC50 (pig TRPM8 [1]) does the source give for CC(C)[C@@H]1CC[C@@H](C)C[C@@]1(O)C(=O)NCC(CO)c1ccccc1 (single isomer, unassigned) [Example 90] here?
Answer: 2000 nM

Question: What about the EC50 (pig TRPM8 [2]) of the same compound?
Answer: 14.4 nM

Question: What about the EC50 (human TRPM8 [3]) of the same compound?
Answer: 41.8 nM

Question: What about the EC50 (human TRPM8 [4]) of the same compound?
Answer: 3000 nM

Question: CC(C)[C@@H]1CC[C@@H](C)C[C@@]1(O)C(=O)NCC(O)c1cccc(CO)c1 (stereo partly drawn) [Example 37, (1S,2S,5R)-1-hydroxy-N-(2-hydroxy-2-(3-(hydroxymethyl)phenyl)ethyl)-2-isopropyl-5-methylcyclohexane-1-carboxamide] was tested. Which EC50 (pig TRPM8 [1]) did it give?
Answer: 2360 nM

Question: What about the EC50 (pig TRPM8 [2]) of the same compound?
Answer: 11 nM

Question: And the EC50 (human TRPM8 [3])?
Answer: 17 nM

Question: What about the EC50 (human TRPM8 [4]) of the same compound?
Answer: 3100 nM
